According to patent US20070203098A1, “Pten Inhibitors” (priority 2004, published 2007):
Where two headings read alike, the source gives them in different places.

Legend:
Type in all cases: biochemical
PTEN [1] = target: T1, PTEN (Homo sapiens, UniProt P60484); test: PTEN Inhibition Assay: General Screening
PTEN [2] = target: T1, PTEN; test: PTEN Inhibition Assay: IC50 Determinations
PTP1B = target: T2, PTP1B (Homo sapiens, UniProt P18031); test: PTP1B Inhibition Assay: IC50 Determinations
T2 sequence (P18031 1-435): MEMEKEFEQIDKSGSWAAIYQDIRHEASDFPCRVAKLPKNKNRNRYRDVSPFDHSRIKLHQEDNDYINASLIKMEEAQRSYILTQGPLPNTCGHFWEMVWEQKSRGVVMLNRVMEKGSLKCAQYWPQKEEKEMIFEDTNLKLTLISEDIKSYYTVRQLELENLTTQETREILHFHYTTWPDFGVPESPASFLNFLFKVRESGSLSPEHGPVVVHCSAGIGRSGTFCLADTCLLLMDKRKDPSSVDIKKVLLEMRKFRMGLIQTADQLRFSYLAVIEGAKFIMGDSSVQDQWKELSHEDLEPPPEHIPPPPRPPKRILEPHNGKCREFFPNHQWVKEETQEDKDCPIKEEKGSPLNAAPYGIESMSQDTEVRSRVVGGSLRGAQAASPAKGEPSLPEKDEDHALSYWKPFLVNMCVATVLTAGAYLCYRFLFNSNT

[3] = read-out: % Inhibition @ 250 uM
[4] = 250 uM, Table 27 isatins, read-out: % Inhibition @250 uM

T1 sequence (P60484 whole entry, species assumed): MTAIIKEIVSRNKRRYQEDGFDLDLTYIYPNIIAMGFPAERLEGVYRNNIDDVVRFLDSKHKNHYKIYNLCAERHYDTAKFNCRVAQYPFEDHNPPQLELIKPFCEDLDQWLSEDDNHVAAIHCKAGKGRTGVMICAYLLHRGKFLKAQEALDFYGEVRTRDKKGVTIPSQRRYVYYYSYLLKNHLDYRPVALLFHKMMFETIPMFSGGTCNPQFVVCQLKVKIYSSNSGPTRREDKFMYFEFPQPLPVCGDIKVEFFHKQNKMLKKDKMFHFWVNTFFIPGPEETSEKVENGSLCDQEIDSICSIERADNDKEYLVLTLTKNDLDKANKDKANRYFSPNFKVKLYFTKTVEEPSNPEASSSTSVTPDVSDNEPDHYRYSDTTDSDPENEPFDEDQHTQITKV

Compound | inhibition at 250 µM (PTEN [1]; [3]) | IC50 (PTEN [2]; Table 29, read-out: PTEN IC50) | IC50 (PTP1B; Table 29, read-out: PTP1B IC50) | IC50 (PTEN [2]) | IC50 (PTP1B) | inhibition at 250 µM (PTEN [1]; [4]) | % Inh. @ 250 uM in PTEN Assay (PTEN [1])
COc1ccc(OCC(=O)Nc2ccc3c(c2)C(=O)C(=O)c2ccccc2-3)cc1 [SF1751-000] | 99.2% | 300 nM | 3000 nM |  |  |  | 
Cc1ccc(OCC(=O)Nc2ccc3c(c2)C(=O)C(=O)c2ccccc2-3)cc1 [SF1771-000] | 99.2% |  |  | 395 nM | 442 nM |  | 
CC(C)c1ccccc1OCC(=O)Nc1ccc2c(c1)C(=O)C(=O)c1ccccc1-2 [SF1772-000] | 99.4% | 435 nM | 681 nM |  |  |  | 
O=C1C(=O)c2cc(NS(=O)(=O)c3ccc([N+](=O)[O-])cc3)ccc2-c2ccccc21 [SF1774-000] | 98.6% | 214 nM | 331 nM |  |  |  | 
Cc1ccc(C(=O)Nc2ccc3c(c2)C(=O)C(=O)N3)cc1 [SF1778-000] |  | 22100 nM | 11000 nM |  |  | 98.5% | 
CC(C)(C)c1ccc(S(=O)(=O)Nc2ccc3c(c2)C(=O)C(=O)c2ccccc2-3)cc1 [SF1780-000] | 98% | 269 nM | 120 nM |  |  |  | 
O=C(COc1ccccc1)Nc1ccc2c(c1)C(=O)C(=O)N2 [SF1781-000] |  | 18900 nM | 294 nM |  |  | 97.8% | 
O=C1C(=O)N(Cc2ccc(Cl)cc2Cl)c2ccc([N+](=O)[O-])cc21 [SF1783-000] |  | 4600 nM | 1100 nM |  |  | 97.8% | 
O=C(CCCc1ccccc1)Nc1ccc2c(c1)C(=O)C(=O)c1ccccc1-2 [SF1785-000] | 97.9% |  |  | 5000 nM | 1000 to 10000 nM |  | 
CCOC(=O)C(=O)Nc1ccc2c(c1)C(=O)C(=O)c1ccccc1-2 [SF1786-000] | 99.8% |  |  | 692 nM | < 1000 nM |  | 
COc1ccccc1OCC(=O)Nc1ccc2c(c1)C(=O)C(=O)c1ccccc1-2 [SF1787-000] | 94.7% | 548 nM | < 1000 nM |  |  |  | 
COc1cccc(OCC(=O)Nc2ccc3c(c2)C(=O)C(=O)c2ccccc2-3)c1 [SF1788-000] | 96.9% | 410 nM | < 1000 nM |  |  |  | 
Nc1ccc2c(c1)C(=O)C(=O)c1ccccc1-2 [SF1789-000] | 99% |  |  | 776 nM | 2970 nM |  | 
O=C(COc1ccc(Cl)cc1)Nc1ccc2c(c1)C(=O)C(=O)c1ccccc1-2 [SF1790-000] | 99.2% |  |  | 2600 nM | 1000 to 10000 nM |  | 
O=C(COc1ccccc1[N+](=O)[O-])Nc1ccc2c(c1)C(=O)C(=O)c1ccccc1-2 [SF1796-000] | 99% | 650 nM | < 10000 nM |  |  |  | 
O=C1C(=O)c2cc(NS(=O)(=O)c3cccs3)ccc2-c2ccccc21 [SF1798-000] | 93.6% |  |  | 369 nM | < 10000 nM |  | 
O=C(Nc1ccc2c(c1)C(=O)C(=O)c1ccccc1-2)c1cccs1 [SF1799-000] | 99.4% |  |  | 733 nM | < 10000 nM |  | 
O=C1C(=O)c2cc(NCc3ccccc3)ccc2-c2ccccc21 [SF1800-000] | 98% |  |  | 862 nM | < 10000 nM |  | 
Cc1cc(C)cc(S(=O)(=O)Nc2ccc3c(c2)C(=O)C(=O)c2ccccc2-3)c1 [SF1801-000] | 95.3% |  |  | 1010 nM | < 10000 nM |  | 
CC(C)(C)c1ccc(C(=O)Nc2ccc3c(c2)C(=O)C(=O)c2ccccc2-3)cc1 [SF1803-000] | 83% | 14600 nM | < 1000 nM |  |  |  | 
O=C(O)CCC(=O)Nc1ccc2c(c1)C(=O)C(=O)c1ccccc1-2 [SF1804-000] | 98.6% |  |  | 54700 nM | 1000 to 10000 nM |  | 
O=C(CNc1ccc2c(c1)C(=O)C(=O)c1ccccc1-2)OCc1ccccc1 [SF1807-000] | 93.9% |  |  |  | < 1000 nM |  | 
CCOC(=O)Nc1ccc2c(c1)C(=O)C(=O)c1ccccc1-2 [SF1808-000] | 96.2% |  |  |  | < 1000 nM |  | 
CCOC(=O)c1cccc(OCC(=O)Nc2ccc3c(c2)C(=O)C(=O)c2ccccc2-3)c1 [SF1811-000] | 98.6% |  |  |  |  |  | 
O=C(CCc1ccccc1[N+](=O)[O-])Nc1ccc2c(c1)C(=O)C(=O)N2 [SF1812-000] |  |  | > 10000 nM |  |  | 40.5% | 
O=C1Nc2c(Cl)ccc(Cl)c2C1=O [SF1822-000] |  | 24500 nM |  |  |  | 97.3% | 
Monoperoxo(picolinato)oxovanadate(V) [SF1677-000, reference compound] |  |  |  |  |  |  | 96.9%
